Results as given in ChEMBL document CHEMBL5543126, “Combinatorial Ubiquitination REal-time PROteolysis (CURE-PROs): A Modular Platform for Generating Reversible, Self-Assembling Bifunctional Targeted Degraders” (J Med Chem, 2024).
The source made the active and inactive calls. The rule behind the calls is not given here.

Key:
[1] = molecular target: T1, von Hippel-Lindau disease tumor suppressor/Bromodomain-containing protein 4 (Homo sapiens, UniProt O60885+P40337); assay: (§1) PROTAC activity at BRD4/VHL in human MCF7 cells assessed as induction of BRD4 degradation by measuring residual activity at 300 nM incubated for 24 hrs in presence of 10 uM BRD4 based ligand ((4S)-6-(4-chlorophenyl)-4-(2-(ethylamino)-2-oxoethyl)-1-methyl4Hbenzo[f][1,2,4]triazolo [4,3-a][1,4]diazepin-8-yl)boronic acid by Western blot based Combinatorial Ubiquitination Real-time PROteolysis analysis; format: cell-based
T1 sequence (P40337 whole entry, looked up, other chains not shown): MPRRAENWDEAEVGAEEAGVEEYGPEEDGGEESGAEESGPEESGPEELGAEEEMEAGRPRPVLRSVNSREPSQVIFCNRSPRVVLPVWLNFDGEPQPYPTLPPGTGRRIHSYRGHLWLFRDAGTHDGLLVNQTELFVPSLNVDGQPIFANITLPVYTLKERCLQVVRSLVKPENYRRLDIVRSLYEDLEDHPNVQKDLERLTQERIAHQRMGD

[2] = molecular target: T1, von Hippel-Lindau disease tumor suppressor/Bromodomain-containing protein 4; assay: as §1, with “30” for “300”, “1” for “10”; format: cell-based
MV4-11 = assay: Antitumor activity against human MV4-11 cells xenografted in nude mouse assessed as reduction in BRD4 level in tumor at 10 mg/kg, ip administered for 4 hrs and measured at 9 to 12 hrs in presence of BRD4 based ligand ((4S)-6-(4-chlorophenyl)-4-(2-(ethylamino)-2-oxoethyl)-1-methyl4Hbenzo[f][1,2,4]triazolo [4,3-a][1,4]diazepin-8-yl)boronic acid; format: functional, organism-based; settings: time 9-12 hrs
[3] = molecular target: T1, von Hippel-Lindau disease tumor suppressor/Bromodomain-containing protein 4; assay: as §1, with “1 uM” for “300 nM”, “of” for “of 10 uM”; format: cell-based
[4] = molecular target: T1, von Hippel-Lindau disease tumor suppressor/Bromodomain-containing protein 4; assay: as §1, with “VHL/BRD4” for “BRD4/VHL”, “HEK293” for “human MCF7”, “degradation rate” for “residual activity”, “3 uM measured every 15 mins” for “300 nM incubated”, “of” for “of 10 uM”, “HiBiT” for “Western blot”; format: cell-based
[5] = molecular target: T1, von Hippel-Lindau disease tumor suppressor/Bromodomain-containing protein 4; assay: as §1, with “1 uM” for “300 nM”, “1” for “10”; format: cell-based
[6] = molecular target: T1, von Hippel-Lindau disease tumor suppressor/Bromodomain-containing protein 4; assay: as §1, with “of” for “of 10 uM”; format: cell-based
[7] = molecular target: T1, von Hippel-Lindau disease tumor suppressor/Bromodomain-containing protein 4; assay: as §1, with “1 uM” for “300 nM”; format: cell-based
[8] = molecular target: T1, von Hippel-Lindau disease tumor suppressor/Bromodomain-containing protein 4; assay: as §1, with “VHL/BRD4” for “BRD4/VHL”, “HEK293” for “human MCF7”, “degradation rate” for “residual activity”, “1 uM measured every 15 mins” for “300 nM incubated”, “of” for “of 10 uM”, “HiBiT” for “Western blot”; format: cell-based
[9] = molecular target: T1, von Hippel-Lindau disease tumor suppressor/Bromodomain-containing protein 4; assay: as §1, with “VHL/BRD4” for “BRD4/VHL”, “HEK293” for “human MCF7”, “Tmax” for “residual activity”, “3 uM measured every 15 mins” for “300 nM incubated”, “of” for “of 10 uM”, “HiBiT” for “Western blot”; format: cell-based
[10] = molecular target: T1, von Hippel-Lindau disease tumor suppressor/Bromodomain-containing protein 4; assay: PROTAC activity at VHL/BRD4 in human MCF7 cells assessed as induction of BRD4 degradation at 10 uM incubated for 24 hrs in presence of BRD4 ligand based ((4S)-6-(4-chlorophenyl)-4-(2-(ethylamino)-2-oxoethyl)-1-methyl4Hbenzo[f][1,2,4]triazolo [4,3-a][1,4]diazepin-8-yl)boronic acid by Western blot based Combinatorial Ubiquitination Real-time PROteolysis analysis; format: cell-based
[11] = molecular target: T1, von Hippel-Lindau disease tumor suppressor/Bromodomain-containing protein 4; assay: as §1, with “1” for “10”; format: cell-based
[12] = molecular target: T1, von Hippel-Lindau disease tumor suppressor/Bromodomain-containing protein 4; assay: (§2) PROTAC activity at BRD4/VHL in human MCF7 cells assessed as induction of BRD4 degradation by measuring residual activity at 100 nM incubated for 24 hrs in presence of 10 uM VHL based ligand (2S,4R)-1-((S)-2-(2,3-dihydroxybenzamido)-3,3-dimethylbutanoyl)-4-hydroxy-N-(4-(4-methylthiazol-5-yl)benzyl)pyrrolidine-2-carboxamide by Western blot based Combinatorial Ubiquitination Real-time PROteolysis analysis; format: cell-based
[13] = molecular target: T1, von Hippel-Lindau disease tumor suppressor/Bromodomain-containing protein 4; assay: as §2, with “VHL/BRD4” for “BRD4/VHL”, “HEK293” for “human MCF7”, “Tmax” for “residual activity”, “10 uM measured every 15 mins” for “100 nM incubated”, “of” for “of 10 uM”, “HiBiT” for “Western blot”; format: cell-based
[14] = molecular target: T1, von Hippel-Lindau disease tumor suppressor/Bromodomain-containing protein 4; assay: as §2, with “10 uM” for “100 nM”; format: cell-based
[15] = molecular target: T1, von Hippel-Lindau disease tumor suppressor/Bromodomain-containing protein 4; assay: as §2, with “3 uM” for “100 nM”, “300 nM” for “10 uM”; format: cell-based
[16] = molecular target: T1, von Hippel-Lindau disease tumor suppressor/Bromodomain-containing protein 4; assay: as §2, with “300” for “100”, “3” for “10”; format: cell-based
[17] = molecular target: T1, von Hippel-Lindau disease tumor suppressor/Bromodomain-containing protein 4; assay: as §2, with “100 nM” for “10 uM”; format: cell-based
[18] = molecular target: T1, von Hippel-Lindau disease tumor suppressor/Bromodomain-containing protein 4; assay: as §2, with “30” for “100”, “100 nM” for “10 uM”; format: cell-based
[19] = molecular target: T1, von Hippel-Lindau disease tumor suppressor/Bromodomain-containing protein 4; assay: as §2, with “30” for “100”, “3” for “10”; format: cell-based
[20] = molecular target: T1, von Hippel-Lindau disease tumor suppressor/Bromodomain-containing protein 4; assay: as §2, with “300” for “100”, “1” for “10”; format: cell-based
[21] = molecular target: T1, von Hippel-Lindau disease tumor suppressor/Bromodomain-containing protein 4; assay: as §2, with “10 uM” for “100 nM”, “1” for “10”; format: cell-based
[22] = molecular target: T1, von Hippel-Lindau disease tumor suppressor/Bromodomain-containing protein 4; assay: as §2, with “300” for “100”, “300 nM” for “10 uM”; format: cell-based
[23] = molecular target: T1, von Hippel-Lindau disease tumor suppressor/Bromodomain-containing protein 4; assay: as §2, with “3 uM” for “100 nM”; format: cell-based

For `Cc1ncsc1-c1ccc(CNC(=O)[C@@H]2C[C@@H](O)CN2C(=O)[C@@H](NC(=O)c2cccc(O)c2O)C(C)(C)C)cc1`, the Activity [1] was 40%, the Activity [2] was 96% and the Activity (MV4-11) was “Active”. The Activity [3] was 64%, the Activity [4] was 0.908 h⁻¹ and the Activity [5] was 35%. It also gave an Activity [6] of 100%, an Activity [7] of 20% and an Activity [8] of 0.548 h⁻¹. For the same compound, the Tmax [9] was 18 h, the Activity [10] was “Active” and the Activity [11] was 38%.

`CCNC(=O)C[C@@H]1N=C(c2ccc(Cl)cc2)c2cc(B(O)O)ccc2-n2c(C)nnc21` was tested, and the Activity [12] was 87%, the Tmax [13] was 22.2 h and the Activity [14] was 6%. For the same compound, the Activity [15] was 39%, the Activity [16] was 37% and the Activity [17] was 97%. The Activity [18] was 89%, the Activity [19] was 90% and the Activity [20] was 38%. It also gave an Activity [21] of 21%, an Activity [22] of 68% and an Activity [23] of 16%.
